{"source": "patent US9187518B2", "about": "“Antiangiogenic brassinosteroid compounds” (CONSEJO NACIONAL DE INVESTIGACIONES CIENTIFICAS Y TECNICAS …, priority 2011, dated 2015)", "key": {"[1]": {"system": "HCLE cells infected with HSV-1", "test": "Microarray gene expression in HCLE cells infected with HSV-1", "type": "cell-based, human", "details": "HCLE infected with HSV-1 (m.o.i.=1), 40 μM, 6 h, vs infected untreated", "description": "HSV-1 infected cells and LPS stimulated cells were transcriptionally analyzed by using the whole human genome microarray and whole mouse genome microarray (Agilent Technologies, Santa Clara, Calif.), corresponding to 41,000 human or mice genes and transcripts.\nRNA was extracted with chloroform/isopropanol and purified from Trizol.\ncDNA synthesis, amplification and labeling of cRNA was performed, following the protocol of two colors of Agilent. Cyanine: 3-CTP and 5-CTP labeled cRNA was prepared from purified RNA (Two-Color Microarray-Based Gene Expression Analysis—Quick Amp Labeling, Agilent). Labeled cRNA was purified, quantified and the efficiency of labeling determined.\nAfter that, we proceeded with the hybridization, washing, assembling of the chips and scanning. […] The fluorescence intensity data obtained for each chip were analyzed using GeneSpring XG11 and Multi Experiment Viewer (MeV) programs. […]\nWe used the commercial software Agilent Feature Extraction for quality control of the scan. The software converts the scanned images produced in quantitative data for further analysis. […] On the one hand, it performs an analysis of the image to locate the grid on the chip and in it, the spots for each gene, and on the other hand, it makes an analysis of data, to define and measure information (fluorescence intensity) of each spot, for the analysis of gene expression. […]"}, "[2]": {"system": "VEGF promoter", "test": "VEGF expression (pVEGF-LUC reporter) in J774A.1 cells", "type": "cell-based, murine", "from_the_text": "The expression vectors pVEGF-LUC (encoding firefly luciferase) and pβ-gal were kindly donated by members of the research group of Dr. Arzt (FCEyN, UBA, Argentina).\nJ774A.1 cells grown to confluence in 6-well micro-plates were transfected with […] of pVEGF-LUC and pβ-gal plasmids diluted in the Opti MEM medium, without serum and antibiotics, and in the presence of lipofectamine (DNA lipofectamine TM 2000) as a reagent for transfection, according to the manufacturer's instructions. After 4 to 6 h of incubation at 37° C. in 5% CO2 atmosphere, the medium was discarded and replaced by fresh Opti MEM with 10% FBS, without antibiotics, and incubated at 37° C. in atmosphere 5% CO2 for 24 h.\nThe medium was discarded and cells were stimulated with 100 ng/ml LPS and 1 ng/ml of IL-6 in Opti MEM medium with 10% FBS. After 8 h and 16 h stimulation, the medium was discarded and the cells were lifted by scrapping in 0.1 ml per well of 1× lysis buffer. The samples were stored at −70° C. until processing.\nIn order to measure luciferase activity, 20 μl of each sample were mixed with 80 μl of substrate for firefly luciferase and measured in a luminometer. In the same samples, β-gal activity was measured in 96-well microplates. To do this, 20 μl of each sample were mixed with 80 μl of substrate for β-galactosidase and incubated at 37° C. until color developed. The absorbances of these mixtures were read in an ELISA reader at 450 nm.\nWe determined the expression of luciferase as a reporter of VEGF promoter activity values obtained by normalizing the against β-gal activity for each sample.\nThus, J774A.1 cells grown in 6-well microplates were transfected with plasmids pVEGF-LUC and pβ-gal. At 24 h post-transfection, cells were stimulated with 100 ng/ml of LPS and […], in the absence and presence of […] of Compound 1. Then, we measured the expression of VEGF and β-gal in the harvested samples and determined the expression of luciferase as a reporter of VEGF promoter activity, by normalizing the values obtained with those of β-gal activity."}}}
{"smiles": "CC[C@@H](C(C)C)[C@H](O)[C@@H](O)[C@@H](C)[C@H]1CC[C@H]2[C@@H]3CCC4=CC(=O)CC[C@]4(C)[C@H]3CC[C@]12C", "note": "[Compound 1, (22S,23S)-22,23-dihydroxystigmast-4-en-3-one]", "values": [{"measurement": "expression of IL-1α, IL-8 and CXCL-2", "setting": "[1]", "value": "overexpression"}, {"measurement": "expression of macrophage colony stimulating factor (CSF-2)", "setting": "[1]", "value": "overexpression"}, {"measurement": "VEGF expression (luciferase normalized to β-gal, VEGF/β-gal)", "setting": "[2]; 100 ng/ml LPS 8 h, Compound 1 (stimulated untreated 93201.5±26770.4)", "value": "22098.5±4052.4"}, {"measurement": "VEGF expression (luciferase normalized to β-gal, VEGF/β-gal)", "setting": "[2]; IL-6 16 h, Compound 1 (stimulated untreated 30929.5±5464)", "value": "17900±2689.7"}, {"measurement": "VEGF expression (luciferase normalized to β-gal)", "setting": "[2]; no stimulus, compound alone, vs baseline", "value": "did not induce the expression of VEGF"}]}
